Experimental data from patent US4960900A, “Oxyimino derivatives of thiazole, method of preparation and use in therapy” (priority 1987, dated 1990).
Read-outs that look alike come from different tables or passages of the source.

How the values were obtained:
male mice [1] = experiment: in vivo; conditions: for LD50: male mice
Procedure: (§1) The toxicity of the products to be studied was investigated by the oral administration, using an esophageal tube, of each of the said products to male mice with a body weight of 18 to 22 g, divided into groups each containing 10 to 20 animals. The mortality was recorded over a 14-day period.
(§2) The results obtained, which are expressed in the form of LD50 in mg/kg, are collated in Table II below.

in vivo [2] = conditions: mouse, in vivo, po; for selectivity ratio: LD50 per os/ED50 per os
Procedure: as §1, §2

[3] = test system: convulsions induced by supramaximal electroshock (MCE); experiment: Anticonvulsant properties: convulsions induced by supramaximal electroshock (MCE), oral, mice; format: in vivo; conditions: per os, male mice, 30 min after administration; for ED50: Mus musculus, po, 0.5 h, read-out: ED50 in respect of convulsions induced by MCE
Procedure: (§7) The anticonvulsant properties were investigated on male mice, thirty minutes after the oral administration of the substances to be studied, by the induction of convulsive seizures.
These seizures are caused either by the intraperitoneal injection of pentetrazole (125 mg/kg) or by electrical stimulation of the cornea (supra-maximal electroshock, abbreviated to MCE).
MCE: supramaximal electroshock;
*: ED50 in mg/kg, determined per os on groups each containing ten

[4] = test system: convulsions induced by pentetrazole (PTZ); experiment: Anticonvulsant properties: convulsions induced by pentetrazole (PTZ), oral, mice; format: in vivo; conditions: per os, male mice, 30 min after administration, pentetrazole 125 mg/kg i.p.; for ED50: Mus musculus, po, 0.5 h, read-out: ED50 in respect of convulsions induced by PTZ; for ED50 in respect of convulsions induced by PTZ: 30 min
From the text: as §7

male mice [5] = experiment: in vivo; format: in vivo
Procedure: (§3) The neurotoxic properties were assessed on male mice by the so-called "Rota-rod" test carried out thirty minutes after the oral administration of the substances to be studied. The animals (divided into groups each containing ten male mice per dose and per product) are installed on the rod and their fall is observed over the next two minutes.
(§4) The results obtained are expressed in the form of the 50% neurotoxic dose (TD50) per os, which is the dose causing 50% of the animals to fall.
(§5) Protection index: TD50 per os/ED50 per os
(§6) *dose determined per os on groups each containing ten male mice.

in vivo [6] = format: in vivo; conditions: mouse, in vivo, po
Procedure: as §3, §4, §5, §6

[7] = prior art documents; cited from earlier work
[8] = prior art documents; cited from earlier work; remark: listed apart in the source
[9] = LD50, Table II, male mice, 14 days
[10] = LD50, Table IV, per os, male mice
[11] = TD50 per os/ED50 per os, MCE, read-out: Protection index MCE
[12] = TD50 per os/ED50 per os, PTZ, read-out: Protection index PTZ
[13] = versus sodium valproate and trimethadione

For `CON=C(C)c1scnc1C` [Ex. 1, 5-(1-methoxyiminoethyl)-4-methylthiazole], the “therapeutic indices compared with the reference products” value (male mice [1]; mouse, in vivo) was “better than those of the reference products”, the LD50 at 336 h (in vivo [2]; [9]) was 740 mg/kg and the LD50 at 336 h (in vivo [2]; [10]) was 740 mg/kg. For the same compound, the selectivity ratio (in vivo [2]; Therapeutic index MCE, MCE) was 8.8, the selectivity ratio (in vivo [2]; Therapeutic index PTZ, PTZ) was 11.9 and the ED50 [3] was 84 mg/kg. For the same compound, the ED50 [4] was 62 mg/kg, the “protection indices compared with the reference products” value (male mice [5]; mouse, in vivo) was “better than those of the reference products” and the selectivity ratio (in vivo [6]; Protection index MCE) was 4.1. It also gave a selectivity ratio (in vivo [6]; Protection index PTZ) of 5.6 and a TD50 at 0.5 h (in vivo [6]; TD50) of 347 mg/kg.
With `CCOc1ccccc1CON=C(C)c1scnc1C` [Ex. 17] the LD50 at 336 h (in vivo [2]; [9]) was greater than 1000 mg/kg, the ED50 [3] was greater than 200 mg/kg and the ED50 [4] was greater than 200 mg/kg.
With `CCCC(CCC)C(=O)O` [VALP, sodium valproate, reference compound] the selectivity ratio (in vivo [2]; Therapeutic index MCE, MCE) was 4, the selectivity ratio (in vivo [2]; Therapeutic index PTZ, PTZ) was 4 and the selectivity ratio (in vivo [6]; [11]) was 2.8. For the same compound, the selectivity ratio (in vivo [6]; [12]) was 2.7.
In the case of `CON=C(C)c1sc(Br)nc1C` [Ex. 25], the LD50 at 336 h (in vivo [2]; [9]) is reported as greater than 1000 mg/kg, the ED50 [3] is reported as greater than 200 mg/kg and the ED50 [4] is reported as greater than 200 mg/kg.
Compound `CC(=NO)c1sc(Cl)nc1C` [Ex. 22] has an LD50 at 336 h (in vivo [2]; [9]) greater than 1000 mg/kg, an ED50 [3] greater than 200 mg/kg and an ED50 [4] greater than 200 mg/kg.
`CC(=NOCCN1CCCC1)c1scnc1C` [Ex. 21] gave an LD50 at 336 h (in vivo [2]; [9]) of 360 mg/kg, an ED50 [3] greater than 200 mg/kg and an ED50 [4] greater than 200 mg/kg.
In the case of `CC(=NO)c1scnc1C` [Ex. 29], the LD50 (male mice [1]; Table II, oral, 14 days) is reported as 1000 mg/kg, the “ED50 in respect of convulsions induced by MCE” value [3] is reported as greater than 200 mg/kg and the “ED50 in respect of convulsions induced by PTZ” value [4] is reported as 200 mg/kg.
For `Cc1ncsc1CO` [5-hydroxymethyl-4-methylthiazole], the “anticonvulsant properties (prior art)” value [7] is listed as “devoid of anticonvulsant effects”.
In the case of `Cc1ncsc1C(C)(C)O` [2-(4-methylthiazol-5-yl)propan-2-ol], the “anticonvulsant properties (prior art)” value [7] is listed as “has anticonvulsant and antihypoxic properties” and the “antihypoxic properties (prior art)” value [8] is listed as “has anticonvulsant and antihypoxic properties”.
In the case of `CC(=NO)c1sc(Br)nc1C` [Ex. 23], the LD50 at 336 h (in vivo [2]; [9]) is reported as greater than 1000 mg/kg, the ED50 [3] is reported as greater than 200 mg/kg and the ED50 [4] is reported as greater than 200 mg/kg.
For `CCON=C(C)c1scnc1C` [Ex. 5], the “therapeutic indices compared with the reference products” value (male mice [1]; mouse, in vivo) was “better than those of the reference products”, the LD50 at 336 h (in vivo [2]; LD50) was 1000 mg/kg and the selectivity ratio (in vivo [2]; Therapeutic index MCE, MCE) was 8.3. For the same compound, the selectivity ratio (in vivo [2]; Therapeutic index PTZ, PTZ) was 10, the “ED50 in respect of convulsions induced by MCE” value ([3]; 30 min) was 120 mg/kg and the “ED50 in respect of convulsions induced by PTZ” value [4] was 100 mg/kg. The “protection indices compared with the reference products” value (male mice [5]; mouse, in vivo) was “better than those of the reference products”, the selectivity ratio (in vivo [6]; Protection index MCE) was 6.3 and the selectivity ratio (in vivo [6]; Protection index PTZ) was 7.5. The TD50 at 0.5 h (in vivo [6]; TD50) was 750 mg/kg.
Work on `CC(=NOCC(=O)O)c1scnc1C` [Ex. 19] yielded an LD50 at 336 h (in vivo [2]; [9]) greater than 1000 mg/kg, an ED50 [3] greater than 200 mg/kg and an ED50 [4] greater than 200 mg/kg.
With `CCCCON=C(C)c1scnc1C.Cl` [Ex. 9, 5-(1-n-butoxyiminoethyl)-4-methylthiazole hydrochloride] the LD50 at 336 h (in vivo [2]; [9]) was greater than 1000 mg/kg, the LD50 at 336 h (in vivo [2]; [10]) was greater than 1000 mg/kg and the selectivity ratio (in vivo [2]; Therapeutic index MCE, MCE) was greater than 6.7. The selectivity ratio (in vivo [2]; Therapeutic index PTZ, PTZ) was greater than 7.3, the ED50 [3] was 150 mg/kg and the ED50 [4] was 138 mg/kg. It also gave a selectivity ratio (in vivo [6]; Protection index MCE) of 4, a selectivity ratio (in vivo [6]; Protection index PTZ) of 4.4 and a TD50 at 0.5 h (in vivo [6]; TD50) of 600 mg/kg.
For `CON=C(C)c1scnc1C.Cl` [Ex. 2, 5-(1-methoxyiminoethyl)-4-methylthiazole hydrochloride], the “Therapeutic index MCE” value (male mice [1]; LD50 per os/ED50 per os, MCE) was 10.0, the “Therapeutic index PTZ” value (male mice [1]; LD50 per os/ED50 per os, PTZ) was 13.9 and the LD50 at 336 h (in vivo [2]; [9]) was 1000 mg/kg. It also gave an LD50 at 336 h (in vivo [2]; [10]) of 1000 mg/kg, an ED50 [3] of 100 mg/kg and an ED50 [4] of 72 mg/kg. The “Protection index MCE” value (male mice [5]; mouse, in vivo, po) was 2.7, the “Protection index PTZ” value (male mice [5]; mouse, in vivo, po) was 3.8 and the TD50 at 0.5 h (in vivo [6]; TD50) was 270 mg/kg.
Compound `CON=C(C)c1sc(Cl)nc1C` [Ex. 24] has an LD50 at 336 h (in vivo [2]; [9]) greater than 1000 mg/kg, an ED50 [3] greater than 200 mg/kg and an ED50 [4] greater than 200 mg/kg.
In the case of `CC(=NOCc1ccccc1F)c1scnc1C` [Ex. 13], the LD50 (male mice [1]; Table IV, per os, 20160 min) is reported as greater than 1000 mg/kg, the “therapeutic indices compared with the reference products” value (male mice [1]; [13]) is reported as “better than those of the reference products” and the LD50 at 336 h (in vivo [2]) is reported as greater than 1000 mg/kg. For the same compound, the selectivity ratio (in vivo [2]; Therapeutic index MCE, MCE) was greater than 5.4, the selectivity ratio (in vivo [2]; Therapeutic index PTZ, PTZ) was greater than 9.5 and the ED50 [3] was 184 mg/kg. The ED50 [4] was 105 mg/kg, the “protection indices compared with the reference products” value (male mice [5]; [13]) was “better than those of the reference products” and the selectivity ratio (in vivo [6]; [11]) was 4. For the same compound, the selectivity ratio (in vivo [6]; [12]) was 7.1 and the TD50 at 0.5 h (in vivo [6]; Rota-rod, per os, male mice, 30 min after administration, read-out: TD50) was 750 mg/kg.
